Test results: patent publication US7560466B2, “Methods of treating or preventing autoimmune diseases with 2,4-pyrimidinediamine compounds” (Rigel Pharmaceuticals, Inc., priority 2003, dated 2009)
Structures can show the parent of a compound that is named as a salt. Where two headings read alike, the source gives them in different places.

Legend:
[1] = tested on: cultured human mast cells (CHMC), IgE-induced degranulation; test: CHMC low cell density IgE activation: tryptase assay; type: cell-based
Method in brief: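 Tryptase release read fluorogenically (30 min, room temperature) from supernatants of anti-IgE-challenged cultured human mucosal mast cells derived from umbilical cord CD34+ cells, at low density of 1000–1500 cells/well.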

[2] = tested on: cultured human mast cells (CHMC), ionomycin-induced degranulation; test: CHMC low cell density ionomycin activation: tryptase assay; type: cell-based; conditions: read-out: LD Tryptase, CHMC, Iono, 3pt
[3] = low cell density CHMC, 3-point, read-out: LD Tryptase, CHMC, IgE, 3pt
[4] = low cell density CHMC, 8-point, read-out: LD Tryptase, CHMC, IgE, 8pt
[5] = low cell density CHMC, ionomycin activation, 3-point
[6] = low cell density CHMC, 3pt, read-out: LD Tryptase, CHMC, IgE, 3pt
[7] = low cell density CHMC, 8pt, read-out: LD Tryptase, CHMC, IgE, 8pt
[8] = low cell density CHMC, ionomycin activation (2 μM final), 3pt
[9] = Homo sapiens, Mast cell, low cell density CHMC, 8pt, read-out: LD Tryptase, CHMC, IgE, 8pt
[10] = Homo sapiens, Mast cell, low cell density CHMC, ionomycin activation (2 μM final), 3pt
[11] = CHMC low cell density, 3pt, read-out: LD Tryptase, CHMC, IgE, 3pt
[12] = CHMC low cell density, ionomycin activation, 3pt

Row | Molecule | IC50 [1, 6] [µM] | IC50 [2, 8] [µM] | IC50 [1, 7] [µM] | other results
1 | Cn1ncc2ccc(Nc3ncc(F)c(Nc4ccc5c(n4)NC(=O)C(C)(C)O5)n3)cc21 [Compound 1057, N4-(2,2-Dimethyl-3-oxo-4H-5-pyrid[1,4]oxazin-6-yl)-5-fluoro-N2-[1-methylindazol-6-yl]-2,4-pyrimidinediamine p-Toluenesulfonic Acid Salt] |  |  |  | IC50 [1, 3]: < 10 µM; IC50 [1, 4]: < 10 µM; IC50 [2, 5]: > 10 µM
2 | C[C@@H]1Oc2ccc(Nc3nc(Nc4cc(C(C)(C)C)[nH]n4)ncc3F)nc2NC1=O [Compound 1092, (S)—N2-(5-tert-Butyl-1H-pyrazol-3-yl)-5-fluoro-N4-(2-methyl-3-oxo-2H,4H-5-pyrid[1,4]oxazin-6-yl)-2,4-pyrimidinediamine] |  |  |  | IC50 [1, 3]: < 10 µM; IC50 [1, 4]: < 10 µM; IC50 [2, 5]: > 10 µM
3 | Fc1cnc(Cl)nc1Nc1ccc2c(n1)NCCO2 [Compound 1117, 2-Chloro-5-fluoro-N4-(3,4-dihydro-2H,4H-5-pyrid[1,4]oxazin-6-yl)-4-pyrimidineamine] |  |  |  | IC50 [1, 3]: > 10 µM; IC50 [2, 5]: > 10 µM
4 | Fc1cnc(Nc2ccc(N3CCOCC3)cc2)nc1Nc1ccc2c(n1)NCCO2 [Compound 1128, N4-(3,4-Dihydro-2H,4H-5-pyrid[1,4]oxazin-6-yl)-5-fluoro-N2-(4-morpholinophenyl)-2,4-pyrimidinediamine] |  |  |  | IC50 [1, 4]: < 10 µM; IC50 [2, 5]: > 10 µM
5 | CN1CCN(c2ccc(Nc3ncc(F)c(Nc4ccc5c(n4)NCCO5)n3)cc2)CC1 [Compound 1141, N4-(3,4-Dihydro-2H,4H-5-pyrid[1,4]oxazin-6-yl)-5-fluoro-N2-[4-(4-methylpiperazino)phenyl]-2,4-pyrimidinediamine] |  |  |  | IC50 [1, 3]: < 10 µM; IC50 [1, 4]: < 10 µM; IC50 [2, 5]: > 10 µM
6 | CN1CCN(c2cccc(Nc3ncc(F)c(Nc4ccc5c(n4)NCCO5)n3)c2)CC1 [Compound 1142, N4-(3,4-Dihydro-2H,4H-5-pyrid[1,4]oxazin-6-yl)-5-fluoro-N2-[3-(4-methylpiperazino)phenyl]-2,4-pyrimidinediamine] | < 10 | > 10 | < 10 | 
7 | COc1ccc(Nc2ncc(F)c(Nc3ccc4c(n3)NCCO4)n2)cc1Cl [Compound 1146, N2-(3-Chloro-4-methoxyphenyl)-N4-(3,4-dihydro-2H,4H-5-pyrid[1,4]oxazin-6-yl)-5-fluoro-2,4-pyrimidinediamine] | < 10 | > 10 |  | 
8 | COC(=O)C=NC(=O)c1ccc(Nc2ncc(F)c(Nc3ccc4c(c3)NC(=O)[C@H](C)O4)n2)cc1 [Compound 1271, (S)-5-Fluoro-N2-[4-(N-methoxycarbonylmethyleneamino)carbonylphenyl]-N4-(2-methyl-3-oxo-2H,4H-benz[1,4]oxazin-6-yl)-2,4-pyrimidinediamine] |  |  |  | IC50 [1, 9]: < 10 µM; IC50 [2, 10]: > 10 µM
9 | COC(=O)C=NC(=O)c1ccc(Nc2ncc(F)c(Nc3ccc4c(c3)NC(=O)[C@@H](C)O4)n2)cc1 [Compound 1272, (R)-5-Fluoro-N2-[4-(N-methoxycarbonylmethyleneamino)carbonylphenyl]-N4-(2-methyl-3-oxo-2H,4H-benz[1,4]oxazin-6-yl)-2,4-pyrimidinediamine] |  |  |  | IC50 [1, 9]: < 10 µM; IC50 [2, 10]: > 10 µM
10 | CC(C)(C)OC(=O)NCC(=O)NCc1ccc(Nc2ncc(F)c(Nc3ccc4c(c3)NC(=O)C(C)(C)O4)n2)cc1 [Compound 1307, N2-[4-[1-(tert-Butoxycarbonylamino)methylenecarbonylamino]methylphenyl]-N4-(2,2-dimethyl-3-oxo-4H-benz[1,4]oxazin-6-yl)-5-fluoro-2,4-pyrimidinediamine] | < 10 | < 10 | < 10 | 
11 | C[C@@H]1Oc2ccc(Nc3nc(Nc4ccc(CNC(=O)CNC(=O)OC(C)(C)C)cc4)ncc3F)cc2NC1=O [Compound 1308, (S)—N2-[4-[1-(tert-Butoxycarbonylamino)methylenecarbonylamino]methylphenyl]-5-fluoro-N4-(2-methyl-3-oxo-2H,4H-benz[1,4]oxazin-6-yl)-2,4-pyrimidinediamine] | < 10 | < 10 | < 10 | 
12 | CC(C)(C)OC(=O)NCC(=O)NCc1ccc(Nc2ncc(F)c(Nc3ccc4c(c3)NC(=O)C(F)(F)O4)n2)cc1 [Compound 1309, N2-[4-[1-(tert-Butoxycarbonylamino)methylenecarbonylamino]methylphenyl]-N4-(2,2-difluoro-3-oxo-4H-benz[1,4]oxazin-6-yl)-5-fluoro-2,4-pyrimidinediamine] | < 10 | > 10 | < 10 | 
13 | N2-(3-Chloro-4-methoxyphenyl)-N4-(2,2-dimethyl-3-oxo-4H-benz[1,4]oxazin-6-yl)-5-fluoro-N4-methyl-2,4-pyrimidinediamine [Compound 394] |  |  |  | IC50 [1, 11]: < 10 µM; IC50 [2, 12]: < 10 µM
14 | N2-(Bis-2-hydroxyethyl)-N4-(3,4-ethylenedioxyphenyl)-5-fluoro-N4-methyl-2,4-pyrimidinediamine [Compound 492] |  |  |  | IC50 [1, 11]: > 10 µM; IC50 [2, 12]: > 10 µM

The next lines start with results.

Row | IC50 [1, 6] [µM] | IC50 [2, 8] [µM] | Molecule | IC50 [1, 7] [µM] | other results
15 | < 10 | > 10 | Fc1cnc(Nc2cccc(-c3ncco3)c2)nc1Nc1ccc2c(n1)NCCO2 [Compound 1143, N4-(3,4-Dihydro-2H,4H-5-pyrid[1,4]oxazin-6-yl)-5-fluoro-N2-[3-(oxazol-2-yl)phenyl]-2,4-pyrimidinediamine] | < 10 | 
16 | < 10 | > 10 | CNC(=O)CNC(=O)c1ccc(Nc2ncc(F)c(Nc3ccc4c(c3)NC(=O)C(C)(C)O4)n2)cc1 [Compound 1295, N4-(2,2-Dimethyl-3-oxo-4H-benz[1,4]oxazin-6-yl)-5-fluaro-N2-[4-[N-(N-methylamino)carbonylmethylene]aminocarbonylphenyl]-2,4-pyrimidinediamine] | < 10 | 
17 | < 10 | > 10 | CNC(=O)CNC(=O)c1ccc(Nc2ncc(F)c(Nc3ccc4c(c3)NC(=O)[C@H](C)O4)n2)cc1 [Compound 1296, (S)-5-Fluoro-N2-[4-[N-(N-methylamino)carbonylmethylene]aminocarbonylphenyl]-N4-(2-methyl-3-oxo-2H,4H-benz[1,4]oxazin-6-yl)-2,4-pyrimidinediamine] | < 10 | 
18 | < 10 | > 10 | N4-(2,2-Difluoro-3-oxo-4H-benz[1,4]oxazin-6-yl)-5-fluoro-N2-[4-[N-(N-methylamino)carbanylmethylene]aminocarbonyl phenyl]-2,4-pyrimidinediamine [Compound 1297] |  | 
